Where “and” joins values, the source holds several entries; their conditions need not be identical. Equal values may be shown once. Read-outs that look alike come from different tables or passages of the source.
What was measured:
[1] = target: farnesyl protein transferase (FPT), K-ras (Homo sapiens, UniProt P49354+P49356); experiment: FPT IC50 (K-ras), inhibition of farnesyl protein transferase, in vitro enzyme assay; format: biochemical
Description: (§1) FPT IC50 (inhibition of farnesyl protein transferase, in vitro enzyme assay) and COS Cell IC50 (Cell-Based Assay) were determined following the assay procedures described in WO 95/10516, published Apr. 20, 1995. GGPT IC50 (inhibition of geranylgeranyl protein transferase, in vitro enzyme assay), Cell Mat Assay, and anti-tumor activity (in vivo anti-tumor studies) could be determined by the assay procedures described in WO 95/10516. The disclosure of WO 95/10516 is incorporated herein by reference thereto.

[2] = tested on: COS Cell; experiment: COS Cell IC50 (Cell-Based Assay)
Description: as §1

[3] = tested on: Human tumor cells; experiment: Soft Agar Assay (anchorage-independent growth); format: cell-based
Description: Anchorage-independent growth is a characteristic of tumorgenic cell lines. Human tumor cells are suspended in growth medium containing 0.3% agarose and an indicated concentration of a farnesyl transferase inhibitor. The solution is overlayed onto growth medium solidified with 0.6% agarose containing the same concentration of farnesyl transferase inhibitor as the top layer. After the top layer is solidified, plates are incubated for 10-16 days at 37° C. under 5% CO2 to allow colony outgrowth. After incubation, the colonies are stained by overlaying the agar with a solution of MTT (3-[4,5-dimethyl-thiazol-2-yl]-2,5-diphenyltetrazolium bromide, Thiazolyl blue) (1 mg/mL in PBS). Colonies can be counted and the IC50's can be determined.

[4] = target: farnesyl protein transferase (FPT), H-ras (Homo sapiens, UniProt P49354+P49356); experiment: FPT IC50 (H-ras), inhibition of farnesyl protein transferase, in vitro enzyme assay; format: biochemical
Description: as §1

[5] = COS, Table 5, read-out: Cos Cell IC50
[6] = Homo sapiens, Table 5, read-out: Soft Agar IC50
[7] = COS, read-out: Cos Cell IC50, Table 5
[8] = Homo sapiens, read-out: Soft Agar IC50, Table 5

Compound	IC50 [2, 5] [nM]	IC50 [3, 6] [nM]	IC50 ([4]; Table 4, read-out: FPT IC50)	also measured
O=C(CC1CCN(C(=O)CN2CCS(=O)(=O)CC2)CC1)N1CCC([C@H]2c3ncc(Br)cc3CCc3cc(Cl)cc(Br)c32)CC1 [Example 6.0-B]				IC50 [1]: 14.5 nM
Cc1nccn1CC(=O)N1CCC(CC(=O)N2CCC([C@H]3c4ncc(Br)cc4CCc4cc(Cl)cc(Br)c43)CC2)CC1 [Example 10.0-B]				IC50 [1]: 15.8 nM
CCOC(=O)CC(CC(=O)N1CCC(CC(=O)N2CCC(C3c4ncc(Br)cc4CCc4cc(Cl)cc(Br)c43)CC2)CC1)OC(C)=O (stereo not drawn) [Example 16.0-B]	16	90	5.3 nM	
Cc1cn(CC(=O)N2CCC(CC(=O)N3CCC([C@H]4c5ncc(Br)cc5CCc5cc(Cl)cc(Br)c54)CC3)CC2)cn1 [Example 11.0-B]				IC50 [1]: 12.6 nM
N#CCC(=O)N1CCC(CC(=O)N2CCC([C@H]3c4ncc(Br)cc4CCc4cc(Cl)cc(Br)c43)CC2)CC1 [Cmpd 44.0-B]	< 10	120	2.6 nM	
CC(C)=NOCC(=O)N1CCC(CC(=O)N2CCC([C@H]3c4ncc(Br)cc4CCc4cc(Cl)cc(Br)c43)CC2)CC1 [Example 9.0-B]				IC50 [1]: 41 nM
O=C(CC1CCN(C(=O)CC2COCCO2)CC1)N1CCC([C@H]2c3ncc(Br)cc3CCc3cc(Cl)cc(Br)c32)CC1 (stereo partly drawn) [Cmpd 114.2-B]	10	75	3.9 nM	
CC(C)=NOCCC(=O)N1CCC(CC(=O)N2CCC([C@H]3c4ncc(Br)cc4CCc4cc(Cl)cc(Br)c43)CC2)CC1 [Cmpd 23.0-B]	< 10	> 500	2.8 nM	
O=C(O)CC(O)CC(=O)N1CCC(CC(=O)N2CCC([C@H]3c4ncc(Br)cc4CCc4cc(Cl)cc(Br)c43)CC2)CC1 (stereo partly drawn) [Example 74.0-B]	40	500	1.7 nM	
CCOC(=O)c1ncn(CC(=O)N2CCC(CC(=O)N3CCC([C@H]4c5ncc(Br)cc5CCc5cc(Cl)cc(Br)c54)CC3)CC2)c1C [Cmpd 54.0-B]	100	> 500	3.9 nM	
O=C(CO/N=C/c1ccccc1O)N1CCC(CC(=O)N2CCC([C@H]3c4ncc(Br)cc4CCc4cc(Cl)cc(Br)c43)CC2)CC1 [Cmpd 95.0-B]	11	> 500	8.3 nM	
NCCC(=O)N1CCC(CC(=O)N2CCC([C@H]3c4ncc(Br)cc4CCc4cc(Cl)cc(Br)c43)CC2)CC1 [Cmpd 88.0-B]	23	> 500	2.2 nM	
O=C(CC1CCN(C(=O)Cn2cnc3ccccc32)CC1)N1CCC([C@H]2c3ncc(Br)cc3CCc3cc(Cl)cc(Br)c32)CC1 [Cmpd 12.0-B]	20	> 500	3 nM	
O=C(CCN1CCCCC1)N1CCC(CC(=O)N2CCC([C@H]3c4ncc(Br)cc4CCc4cc(Cl)cc(Br)c43)CC2)CC1 [Example 7.0-B]				IC50 [1]: 15.4 nM
NC(=O)CCCCCC(=O)N1CCC(CC(=O)N2CCC([C@H]3c4ncc(Br)cc4CCc4cc(Cl)cc(Br)c43)CC2)CC1 [Cmpd 71.0-B]	19	240	3.3 nM	
CC(C)(C)OC(=O)N1CC(O)CC1C(=O)N1CCC(CC(=O)N2CCC(C3c4ncc(Br)cc4CCc4cc(Cl)cc(Br)c43)CC2)CC1 (stereo not drawn) [Example 24.0-B]	100	> 500	0.7 nM	
O=C1NC(=O)C(CC(=O)N2CCC(CC(=O)N3CCC([C@H]4c5ncc(Br)cc5CCc5cc(Cl)cc(Br)c54)CC3)CC2)N1 (stereo partly drawn) [Cmpd 77.0-B]	14	240	3.2 nM	IC50 ([3]; Table 5, read-out: Soft Agar IC50): 214 nM
CC(=O)C(=O)N1CCC(CC(=O)N2CCC([C@H]3c4ncc(Br)cc4CCc4cc(Cl)cc(Br)c43)CC2)CC1 [Cmpd 72.0-B]	10	320	5.4 nM	
O=C(CC1CCN(C(=O)Cn2cnc3cccnc32)CC1)N1CCC([C@H]2c3ncc(Br)cc3CCc3cc(Cl)cc(Br)c32)CC1 [Example 13.0-B]				IC50 [1]: 19.7 nM
COC(=O)C(=O)N1CCC(CC(=O)N2CCC([C@H]3c4ncc(Br)cc4CCc4cc(Cl)cc(Br)c43)CC2)CC1 [Example 104.0-B]	40	> 500		IC50 ([4]; H-ras, read-out: FPT IC50 (H-ras)): 4.6 nM
O=C(CC1CCN(C(=O)Cn2cccc2)CC1)N1CCC([C@H]2c3ncc(Br)cc3CCc3cc(Cl)cc(Br)c32)CC1 [Cmpd 34.0-B]	9	460	4.2 nM	

Compound	IC50 [2, 5] [nM]	IC50 [3, 6] [nM]	IC50 ([4]; Table 4, read-out: FPT IC50)	also measured
CC(C)=NOCC(=O)N1CCC(CC(=O)N2CCC([C@H]3c4ncc(Br)cc4CCc4cc(Cl)cc(Br)c43)CC2)CC1 [Cmpd 9.0-B]	25	> 500	5.8 nM	
O=C(OCc1ccccc1)c1cccn1CC(=O)N1CCC(CC(=O)N2CCC([C@H]3c4ncc(Br)cc4CCc4cc(Cl)cc(Br)c43)CC2)CC1 [Cmpd 55.0-B]	200	> 500	9.2 nM	
O=C(CC1CCN(C(=O)Cn2cnc3ccccc32)CC1)N1CCC([C@H]2c3ncc(Br)cc3CCc3cc(Cl)cc(Br)c32)CC1 [Example 12.0-B]				IC50 [1]: 26.7 nM
COC(=O)Cc1cn(CC(=O)N2CCC(CC(=O)N3CCC([C@H]4c5ncc(Br)cc5CCc5cc(Cl)cc(Br)c54)CC3)CC2)cn1 [Cmpd 56.0-B]	50	> 500	3.3 nM	
NC(=O)CC(=O)N1CCC(CC(=O)N2CCC([C@H]3c4ncc(Br)cc4CCc4cc(Cl)cc(Br)c43)CC2)CC1 [Cmpd 50.0-B]	< 10	95	3.3 nM	
O=C(CC1CCOCC1)N1CCC(CC(=O)N2CCC([C@H]3c4ncc(Br)cc4CCc4cc(Cl)cc(Br)c43)CC2)CC1 [Cmpd 85.0-B]	14	333	5 nM	
Cc1cn(CC(=O)N2CCC(CC(=O)N3CCC([C@H]4c5ncc(Br)cc5CCc5cc(Cl)cc(Br)c54)CC3)CC2)cn1 [Cmpd 11.0-B]	29	> 500	1.6 nM	
O=C(CC1CCN(C(=O)CN2C(=O)CSC2=O)CC1)N1CCC([C@H]2c3ncc(Br)cc3CCc3cc(Cl)cc(Br)c32)CC1 [Cmpd 79.0-B]	150	> 500	4.4 nM	
NNC(=O)C(=O)N1CCC(CC(=O)N2CCC([C@H]3c4ncc(Br)cc4CCc4cc(Cl)cc(Br)c43)CC2)CC1 [Cmpd 32.0-B]	28	> 500	3.5 nM	
NC(=O)CCCC(=O)N1CCC(CC(=O)N2CCC([C@H]3c4ncc(Br)cc4CCc4cc(Cl)cc(Br)c43)CC2)CC1 [Cmpd 114.0-B]	35	395	3.9 nM	
O=C(C(=O)N1CCC(CC(=O)N2CCC([C@H]3c4ncc(Br)cc4CCc4cc(Cl)cc(Br)c43)CC2)CC1)c1cccs1 [Cmpd 81.0-B]	28	> 500	9.3 nM	
CC(C)(C)OC(=O)NCCCC(=O)N1CCC(CC(=O)N2CCC([C@H]3c4ncc(Br)cc4CCc4cc(Cl)cc(Br)c43)CC2)CC1 [Example 89.0-B]	550	> 500	8.7 nM	
O=C(CC1CCN(C(=O)Cn2cncn2)CC1)N1CCC([C@H]2c3ncc(Br)cc3CCc3cc(Cl)cc(Br)c32)CC1 [Cmpd 57.0-B]	< 10	110	1.8 nM	
O=C(O)CCC(=O)N1CCC(CC(=O)N2CCC([C@H]3c4ncc(Br)cc4CCc4cc(Cl)cc(Br)c43)CC2)CC1 [Example 78]			1.2 nM	IC50 [2, 7]: 75 nM; IC50 [3, 8]: > 500 nM
O=C(Cc1cccs1)N1CCC(CC(=O)N2CCC([C@H]3c4ncc(Br)cc4CCc4cc(Cl)cc(Br)c43)CC2)CC1 [Cmpd 82.0-B]	< 10	> 500	7.1 nM	
O=C(O)CC(=O)N1CCC(CC(=O)N2CCC([C@H]3c4ncc(Br)cc4CCc4cc(Cl)cc(Br)c43)CC2)CC1 [Example 14.0-B]			0.9 nM and 1.9 nM	IC50 [2, 7]: 250 nM; IC50 ([2]; read-out: Cos Cell IC50, Table 5): 200 nM; IC50 [3, 8]: > 500 nM
CN(C)C(=O)C(=O)N1CCC(CC(=O)N2CCC([C@H]3c4ncc(Br)cc4CCc4cc(Cl)cc(Br)c43)CC2)CC1 [Cmpd 33.0-B]	10	> 120	2.1 nM	
Cc1nccn1CC(=O)N1CCC(CC(=O)N2CCC([C@H]3c4ncc(Br)cc4CCc4cc(Cl)cc(Br)c43)CC2)CC1 [Cmpd 10.0-B]	20	> 300	2.5 nM	
O=C(O)C(=O)N1CCC(CC(=O)N2CCC([C@H]3c4ncc(Br)cc4CCc4cc(Cl)cc(Br)c43)CC2)CC1 [Cmpd 17.0-B]	> 1000	> 500	1.2 nM	
O=C(CC1CCN(C(=O)CN2CCS(=O)(=O)CC2)CC1)N1CCC([C@H]2c3ncc(Br)cc3CCc3cc(Cl)cc(Br)c32)CC1 [Cmpd 6.0-B]	30	210	2.7 nM	
O=C(CC1CCN(C(=O)CN2CCCCC2)CC1)N1CCC([C@H]2c3ncc(Br)cc3CCc3cc(Cl)cc(Br)c32)CC1 [Cmpd 75.0-B]	10	150	4.7 nM	

Source: patent US6387905B2, “Compounds useful for inhibition of farnesyl protein transferase” (Schering Corporation, priority 1996, dated 2002)
